Assay results reported in patent US6818445B2 (Synaptic Pharmaceutical Corporation, priority 1994, dated 2004).

What was measured:
human α2B receptor = target: T1, human α2B receptor (Homo sapiens, UniProt P18089); assay: Binding to cloned human α2B adrenergic receptor, [3H]rauwolscine
T1 sequence (P18089 1-450): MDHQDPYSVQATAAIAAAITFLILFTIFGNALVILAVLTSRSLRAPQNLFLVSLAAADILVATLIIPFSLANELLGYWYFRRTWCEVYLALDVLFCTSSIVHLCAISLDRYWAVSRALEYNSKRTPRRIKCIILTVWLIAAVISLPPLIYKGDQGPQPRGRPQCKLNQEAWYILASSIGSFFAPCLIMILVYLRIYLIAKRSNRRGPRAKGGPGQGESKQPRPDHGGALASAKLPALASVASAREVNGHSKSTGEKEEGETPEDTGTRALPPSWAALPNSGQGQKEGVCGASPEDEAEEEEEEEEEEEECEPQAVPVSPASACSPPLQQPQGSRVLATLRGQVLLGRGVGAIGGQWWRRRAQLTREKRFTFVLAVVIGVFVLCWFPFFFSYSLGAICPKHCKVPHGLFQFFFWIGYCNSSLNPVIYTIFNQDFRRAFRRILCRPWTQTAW

human 5-HT7 receptor = human 5-HT7 receptor (Homo sapiens, UniProt P34969); assay: Binding to human 5-HT7 receptor; conditions: cloned human receptor
Chain of human 5-HT7 receptor (P34969 1-445 isoform P34969-2): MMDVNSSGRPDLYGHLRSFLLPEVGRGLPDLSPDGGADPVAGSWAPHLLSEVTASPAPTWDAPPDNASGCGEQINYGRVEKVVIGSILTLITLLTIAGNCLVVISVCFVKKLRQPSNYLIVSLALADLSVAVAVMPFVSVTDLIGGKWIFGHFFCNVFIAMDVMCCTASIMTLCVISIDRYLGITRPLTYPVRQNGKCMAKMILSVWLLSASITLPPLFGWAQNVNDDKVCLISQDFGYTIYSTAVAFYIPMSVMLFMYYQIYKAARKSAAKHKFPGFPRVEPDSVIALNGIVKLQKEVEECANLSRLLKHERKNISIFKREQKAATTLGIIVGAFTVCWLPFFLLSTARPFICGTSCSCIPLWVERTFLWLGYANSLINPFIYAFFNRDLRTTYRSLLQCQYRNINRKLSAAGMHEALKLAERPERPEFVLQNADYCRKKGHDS

human 5HT1Dα receptor = human 5HT1Dα receptor (Homo sapiens, UniProt P28221); assay: Binding to human 5HT1Dα receptor, [3H]serotonin; conditions: cloned human receptor
Chain of human 5HT1Dα receptor (P28221 whole entry): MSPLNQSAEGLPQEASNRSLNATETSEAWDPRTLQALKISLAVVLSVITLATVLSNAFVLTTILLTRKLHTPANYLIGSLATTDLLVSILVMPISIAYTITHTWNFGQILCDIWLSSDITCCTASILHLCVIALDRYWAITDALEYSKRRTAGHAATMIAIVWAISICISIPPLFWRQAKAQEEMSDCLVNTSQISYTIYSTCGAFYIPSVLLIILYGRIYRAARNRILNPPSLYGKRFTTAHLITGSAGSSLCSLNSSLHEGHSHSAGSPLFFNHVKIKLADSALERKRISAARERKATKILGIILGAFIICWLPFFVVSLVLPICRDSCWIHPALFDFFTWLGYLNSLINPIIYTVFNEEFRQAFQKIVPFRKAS

[1] = system: NPY-induced feeding behavior in satiated rats; assay: NPY-induced food intake in satiated rats; assay type: in vivo, rat; conditions: compound 30 mg/kg i.p., then 300 pmole NPY i.c.v.; 4 hours after NPY
Procedure: The rats are individually housed in stainless steel cages and maintained on an 11:13 h light-dark cycle (lights off at 18:00 h) at a controlled temperature of 21-23° C. at all times. Water and food (NAFAG lab chow pellets NAFAG, Gossau, Switzerland) are available ad libidum.
The guide cannula is placed on the dura. Injection cannulas extend the guide cannulas −3.8 mm ventrally to the skull surface. Animals are allowed at least 4 days of recovery postoperatively before being used in the experiments. Cannula placement is checked postoperatively by testing all rats for their drinking response to a 50 ng intracerebroventricular (i.c.v.) injection of angiotensin II. Only rats which drink at least 2.5 ml of water within 30 min. after angiotensin II injection are used in the feeding studies.
All injections are made in the morning 2 hours after light onset. Peptides are injected in artificial cerebrospinal fluid (ACSF) in a volume of 5 μl.
Pellets are then removed from the cage subsequently at each selected time point and replaced with a new set of preweighed pellets. The food intake of animals treated with test compound may be calculated as a percentage of the food intake of control animals i.e., animals treated with vehicle. Alternatively, food intake for each group of animals subjected to a particular experimental condition may be expressed as the mean±S.E.M. Statistical analysis is performed by analysis of variance using the Student-Newman-Keuls test.
Food intake is reported as the mean±S.E.M. intake for a group of animals.

human Y4 receptor = human Y4 receptor (Homo sapiens, UniProt P50391); assay type: binding; conditions: read-out: Binding Affinity (Ki (nM) vs. ^125I-PYY) Human Receptor Y4; Table 14
Chain of human Y4 receptor (P50391 whole entry): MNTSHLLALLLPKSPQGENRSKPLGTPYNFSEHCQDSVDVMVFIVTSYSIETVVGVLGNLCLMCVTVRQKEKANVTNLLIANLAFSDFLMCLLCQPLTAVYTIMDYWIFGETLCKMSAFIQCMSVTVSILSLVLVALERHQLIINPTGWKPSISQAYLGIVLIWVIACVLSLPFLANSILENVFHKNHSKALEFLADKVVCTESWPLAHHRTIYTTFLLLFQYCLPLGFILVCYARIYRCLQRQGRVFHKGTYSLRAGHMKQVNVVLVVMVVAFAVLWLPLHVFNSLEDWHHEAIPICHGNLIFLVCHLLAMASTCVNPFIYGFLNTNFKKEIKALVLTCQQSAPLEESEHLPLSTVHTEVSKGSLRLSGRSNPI

human α1b receptor = target: T2, human α1b receptor (Homo sapiens, UniProt P35368); assay: Binding to cloned human α1b adrenergic receptor
T2 sequence (P35368 1-520): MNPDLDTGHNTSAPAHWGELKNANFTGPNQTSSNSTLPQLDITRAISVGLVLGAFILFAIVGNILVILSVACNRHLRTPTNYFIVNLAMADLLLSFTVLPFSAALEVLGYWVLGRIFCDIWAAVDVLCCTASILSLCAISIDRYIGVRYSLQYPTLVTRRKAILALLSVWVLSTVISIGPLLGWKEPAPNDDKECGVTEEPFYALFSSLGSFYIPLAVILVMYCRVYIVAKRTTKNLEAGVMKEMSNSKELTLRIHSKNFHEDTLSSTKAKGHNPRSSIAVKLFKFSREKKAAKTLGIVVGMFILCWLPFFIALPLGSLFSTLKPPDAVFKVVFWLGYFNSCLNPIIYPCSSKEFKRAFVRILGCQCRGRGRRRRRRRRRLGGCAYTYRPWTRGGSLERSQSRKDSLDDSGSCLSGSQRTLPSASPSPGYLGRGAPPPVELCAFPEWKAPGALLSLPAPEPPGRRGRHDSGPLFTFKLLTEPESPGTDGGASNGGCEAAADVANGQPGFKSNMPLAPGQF

5HT1a receptor = target: T3, 5HT1a receptor (Homo sapiens, UniProt P08908); assay: Binding to cloned human 5HT1a receptor
T3 sequence (P08908 1-422): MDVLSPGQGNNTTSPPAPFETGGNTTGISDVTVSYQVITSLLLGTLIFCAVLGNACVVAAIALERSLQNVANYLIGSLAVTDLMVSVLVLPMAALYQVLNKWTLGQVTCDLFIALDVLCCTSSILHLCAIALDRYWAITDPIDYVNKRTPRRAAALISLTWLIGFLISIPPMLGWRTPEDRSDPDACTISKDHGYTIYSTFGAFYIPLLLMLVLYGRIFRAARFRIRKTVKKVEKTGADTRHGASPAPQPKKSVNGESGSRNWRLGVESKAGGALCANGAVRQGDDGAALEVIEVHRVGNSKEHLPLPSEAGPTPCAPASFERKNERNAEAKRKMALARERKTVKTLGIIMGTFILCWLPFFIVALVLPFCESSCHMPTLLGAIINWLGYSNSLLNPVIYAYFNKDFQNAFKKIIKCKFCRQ

[2] = target: human dopamine D3 receptor (Homo sapiens, UniProt P35462); assay: Binding to human dopamine D3 receptor, [3H]spiperone; conditions: cloned human receptor
Chain of human dopamine D3 receptor (P35462 whole entry): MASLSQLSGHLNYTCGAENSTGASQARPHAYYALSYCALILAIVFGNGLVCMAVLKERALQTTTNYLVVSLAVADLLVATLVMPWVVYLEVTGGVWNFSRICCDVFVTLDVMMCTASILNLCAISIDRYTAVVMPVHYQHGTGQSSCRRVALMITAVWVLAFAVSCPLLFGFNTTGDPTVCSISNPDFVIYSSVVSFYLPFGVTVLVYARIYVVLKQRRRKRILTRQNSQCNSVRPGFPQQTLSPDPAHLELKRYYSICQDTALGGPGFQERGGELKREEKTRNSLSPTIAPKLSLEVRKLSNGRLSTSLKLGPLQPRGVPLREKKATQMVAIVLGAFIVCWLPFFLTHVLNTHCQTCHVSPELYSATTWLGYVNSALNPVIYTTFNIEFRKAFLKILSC

[3] = system: food intake of 24 h food-deprived rats; assay: Food intake in food-deprived rats; assay type: in vivo, rat; conditions: 30 mg/kg i.p. after 24 h food deprivation, percentage of intake compared to control rats
Procedure: At the end of the equilibration period, food is removed from the animals for 24 hours starting at 8:00 a.m. At the end of the fasting period compound or vehicle may be administered to the animals orally or by injection intraperitoneally or intravenously. After 10-60 min. food is returned to the animals and their food intake is monitored at various time periods during the following 24 hour period. The food intake of animals treated with test compound may be calculated as a percentage of the food intake of control animals (i.e., animals treated with vehicle). Alternatively, food intake for each group of animals subjected to a particular experimental condition may be expressed as the mean±S.E.M.
Therefore, the Y5 antagonists of Table 14 were administered by intraperitoneal injection at a dose of 30 mg/kg to conscious rats following a 24 h food deprivation. […] Measurements were performed two hours after administration of the test compound.

human 5HT2 receptor = human 5HT2 receptor (Homo sapiens, UniProt P28223); assay: Binding to human 5HT2 receptor, [3H]ketanserin; conditions: cloned human receptor
Chain of human 5HT2 receptor (P28223 whole entry): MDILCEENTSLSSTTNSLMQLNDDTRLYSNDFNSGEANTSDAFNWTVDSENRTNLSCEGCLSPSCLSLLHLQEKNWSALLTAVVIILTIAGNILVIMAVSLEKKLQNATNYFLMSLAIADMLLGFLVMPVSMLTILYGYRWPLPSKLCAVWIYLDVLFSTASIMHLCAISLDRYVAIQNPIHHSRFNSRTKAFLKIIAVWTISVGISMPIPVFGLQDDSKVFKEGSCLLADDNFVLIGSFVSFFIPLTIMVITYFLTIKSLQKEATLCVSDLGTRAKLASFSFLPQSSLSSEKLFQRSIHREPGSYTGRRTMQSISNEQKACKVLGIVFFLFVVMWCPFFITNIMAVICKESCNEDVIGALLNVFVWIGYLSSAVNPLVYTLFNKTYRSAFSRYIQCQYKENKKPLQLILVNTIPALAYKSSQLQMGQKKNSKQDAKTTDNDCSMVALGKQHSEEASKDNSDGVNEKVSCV

human 5HT1Dβ receptor = human 5HT1Dβ receptor (Homo sapiens, UniProt P28222); assay: Binding to human 5HT1Dβ receptor, [3H]serotonin; conditions: cloned human receptor
Chain of human 5HT1Dβ receptor (P28222 whole entry): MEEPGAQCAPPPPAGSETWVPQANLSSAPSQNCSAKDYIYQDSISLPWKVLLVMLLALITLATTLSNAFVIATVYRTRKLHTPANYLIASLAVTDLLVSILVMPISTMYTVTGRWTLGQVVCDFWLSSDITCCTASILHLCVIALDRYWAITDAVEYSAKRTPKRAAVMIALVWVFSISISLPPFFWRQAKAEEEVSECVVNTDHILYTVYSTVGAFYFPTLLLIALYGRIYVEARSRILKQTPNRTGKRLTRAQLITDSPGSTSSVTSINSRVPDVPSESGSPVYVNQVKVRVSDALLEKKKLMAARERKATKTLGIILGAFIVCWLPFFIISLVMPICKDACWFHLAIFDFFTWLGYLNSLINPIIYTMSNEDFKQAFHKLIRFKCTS

human α2C receptor = target: T4, human α2C receptor (Homo sapiens, UniProt P18825); assay: Binding to cloned human α2C adrenergic receptor, [3H]rauwolscine
T4 sequence (P18825 1-462): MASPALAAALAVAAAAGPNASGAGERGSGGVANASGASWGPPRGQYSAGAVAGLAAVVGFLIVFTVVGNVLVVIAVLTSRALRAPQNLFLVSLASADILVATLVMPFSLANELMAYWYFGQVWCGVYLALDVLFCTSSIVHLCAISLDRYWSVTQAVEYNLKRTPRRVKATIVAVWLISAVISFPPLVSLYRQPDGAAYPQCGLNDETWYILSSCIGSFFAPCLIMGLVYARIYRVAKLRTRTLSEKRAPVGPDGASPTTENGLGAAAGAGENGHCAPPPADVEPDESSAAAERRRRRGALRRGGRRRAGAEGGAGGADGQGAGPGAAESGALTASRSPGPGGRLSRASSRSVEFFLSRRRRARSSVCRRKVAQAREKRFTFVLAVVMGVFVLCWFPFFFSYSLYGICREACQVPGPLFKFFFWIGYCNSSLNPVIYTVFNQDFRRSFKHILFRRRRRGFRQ

For `Cl.O=S(=O)(NC[C@H]1CC[C@H](CNCC2CCc3ccccc3C2)CC1)c1cccc2ccccc12` (stereo partly drawn) [Compound 19], the “Receptor (pKi) α2b” value (human α2B receptor) was 6.58, the “Receptor (pKi) 5HT7” value (human 5-HT7 receptor) was 6.42 and the “Receptor (pKi) 5HT1Dα” value (human 5HT1Dα receptor) was 6.04. The “Food intake (g) mean ± S.E.M., NPY + compound” value [1] was 1.5 ± 0.6 g, the Ki (human Y4 receptor) was 11700 nM and the “Receptor (pKi) α1b” value (human α1b receptor) was 7.35. For the same molecule, the “Receptor (pKi) 5HT1a” value (5HT1a receptor) was 5.54, the “Receptor (pKi) D3” value [2] was 6.69 and the “Two-hour food intake of food-deprived rats, Mean (%)” value (from here on “Two-hour food intake … (%)”) [3] was 36%. For the same molecule, the “Receptor (pKi) 5HT2” value (human 5HT2 receptor) was 6.55.

For `Cl.O=[N+]([O-])c1ccccc1S(=O)(=O)NC[C@H]1CC[C@H](CNCC2CCc3ccccc3C2)CC1` (stereo partly drawn) [Compound 20], the “Receptor (pKi) α2b” value (human α2B receptor) was 6.96, the “Receptor (pKi) 5HT7” value (human 5-HT7 receptor) was 6.37 and the “Receptor (pKi) 5HT1Dα” value (human 5HT1Dα receptor) was 5.94. For the same molecule, the Ki (human Y4 receptor) was 20400 nM, the “Receptor (pKi) α1b” value (human α1b receptor) was 7.22 and the “Receptor (pKi) D3” value [2] was 6.35. For the same molecule, the “Receptor (pKi) 5HT1Dβ” value (human 5HT1Dβ receptor) was 5.37, the “Two-hour food intake … (%)” value [3] was 35% and the “Receptor (pKi) 5HT2” value (human 5HT2 receptor) was 5.93. The “Receptor (pKi) α2c” value (human α2C receptor) was 7.39.

`Cl.Cl.Nc1ccccc1S(=O)(=O)NCC1CCC(CNCC2CCc3ccccc3C2)CC1` (stereo not drawn) [Compound 22] was tested, and the “Receptor (pKi) α2b” value (human α2B receptor) was 6.43, the “Receptor (pKi) 5HT7” value (human 5-HT7 receptor) was 6.39 and the “Receptor (pKi) 5HT1Dα” value (human 5HT1Dα receptor) was 5.98. The Ki (human Y4 receptor) was 27500 nM, the “Receptor (pKi) α1b” value (human α1b receptor) was 6.98 and the “Receptor (pKi) 5HT1a” value (5HT1a receptor) was 6.56. The “Receptor (pKi) 5HT1Dβ” value (human 5HT1Dβ receptor) was 5.41, the “Two-hour food intake … (%)” value [3] was 55% and the “Receptor (pKi) 5HT2” value (human 5HT2 receptor) was 5.99. The “Receptor (pKi) α2c” value (human α2C receptor) was 7.15.
